# How the values were obtained:
# [1] = Dynamic vapor sorption (DVS); type: physicochemical; conditions: for moisture adsorption: 25°C
# Method: Hygroscopicity and moisture absorption of IVMT-Rx-4 were assessed using dynamic vapor sorption on a DVS instrument (SMS, DVS Intrinsic). Samples 20.4 mg in size were first treated at 25°C for several hours while under nitrogen flow. They were then treated with water vapor at various partial pressures with relative humidities which ranged from 0 to 90% at 25°C.
# CYP3A4 = target: T1, CYP3A4 (Homo sapiens, UniProt P08684); test: Drug-substrate based CYP inhibition, 3A4; type: in vitro ADME; conditions: human liver microsomes
# T1 construct: in the presence of human liver microsomes; from tissue; host or cells: human liver microsomes
# Method: (§1) IVMT-Rx-4 was incubated with selective probe substrates of each CYP isoform in the presence of human liver microsomes. The formation of metabolite was quantified using LC-MS/MS methods. The extent of inhibition was assessed by calculating the remaining enzyme activity and percent inhibition based on analyte-to-internal standard area ratios, using the following equations:
# (§2) Area Ratio = Peak AreaAnalyte / Peak AreaInternal Standard
# (§3) Remaining Activity (%) = Area Ratiotest compound / Area Ratiovehicle ×100
# (§4) Inhibition (%) = 100 ̶ Remaining Activity (%)
# [2] = Solubility study in bio-relevant media, buffers and solvents; type: physicochemical
# [3] = tested on: Salmonella typhimurium TA98 & TA100; test: Mini-Ames assay; type: cell-based; conditions: with or without S9 mix
# Method: The mini-AMES assay was performed in Pharmaron, Inc. following the standard protocol as developed by the in-house scientist. […] The assay was conducted in the presence or absence of the S9 mix along with concurrent negative/solvent control and positive controls.
# [4] = Thermodynamic solubility in PBS, pH 7.4; type: physicochemical
# Caco-2 cell monolayer = test: Caco-2 bidirectional permeability; type: in vitro ADME; conditions: 10 µM
# Method: To prepare the Caco-2 cell monolayer, 50 µL and 25 µL of cell culture medium (Dulbecco’s modified Eagle’s medium, DMEM) were added to each well of the inserts and reservoir, respectively, within a 96-well HTS Transwell plate (Corning, NY, USA). The plate was incubated at 37 °C and 5% CO2 for 1 hr. prior to cell seeding. Caco-2 cells were then diluted to 6.86 x 10^5 cells/mL using culture medium and 50 µL of cell suspension were seeded into the plate, and incubated at 37 °C, 5% CO2, and 95% relative humidity for 14-18 days. During this time, the cells were cultivated with media replacements occurring every other day. Cells were allowed to grow and differentiate and the integrity of the Caco-2 cell monolayer was evaluated by measurement of transepithelial electrical resistance (TEER) using a Millicell Epithelial Volt-Ohm measuring system (Millipore, USA).
# Prior to the assay, the established monolayer was washed twice with pre-warmed HBSS and incubated at 37 °C for 30 minutes. A bidirectional permeability assay was performed simultaneously using two different plates as described previously (Supplementary Reference: Cui Y, Desevaux C, Truebenbach I, Sieger P, Klinder K, Long A, Sauer A. A Bidirectional Permeability Assay for beyond Rule of 5 Compounds. Pharmaceutics. 2021 Jul 27;13(8):1146. doi: 10.3390/pharmaceutics13081146. PMID: 34452112; PMCID: PMC8400635.): one assessed permeability from the apical to the basolateral side, while the other assessed from the basolateral to the apical side. […] For apical to basolateral permeability, 108 µL of working solution was loaded into the apical compartment, whereas 308 µL of working solution was added to the basolateral compartment for basolateral to apical permeability. The samples collected from donor and receiver compartment were mixed with 72 µL transport buffer and 240 µL of acetonitrile containing internal standard (IS, 100 nM alprazolam, 200 nM Caffeine and 100 nM tolbutamide), centrifuged at 1000 rpm for 10 minutes. […] In doing so, the following equations were used: […]
# Where, Papp is apparent permeability (cm/s x 10^-6), dQ/dt is the rate of drug transport (pmol/second), A is the surface area of the membrane (cm^2), and D0 is the initial donor concentration (nM; pmol/cm^3). (B-A) indicates basolateral to apical permeation, where (A-B) indicates apical to basolateral.
# [5] = tested on: CYP 1A2, 2A6, 2B6, 2C8, 2C9, 2C19, 2D6, 2E1, 3A4_M, 3A4_T (the others); test: Drug-substrate based CYP inhibition, other isoforms of the panel; type: in vitro ADME; conditions: human liver microsomes; isoforms of the panel not given
# Method: as §1, §2, §3, §4
# [6] = tested on: CYP1A2, 2A6, 2B6, 2C8, 2C9, 2C19, 2D6 (the other isoforms of the panel); test: as above; type: in vitro ADME; conditions: human liver microsomes; isoforms of the panel not given; read-out: Drug-substrate based CYP Inhibition, others
# Method: as §1, §2, §3, §4
# RM1-BM-Luc cells = test: Experimental bone metastasis, intracardiac RM1-BM-Luc; type: in vivo, C57BL/6 mice
# Method: For experimental bone metastasis experiments, 3 × 10^4 RM1-BM-Luc cells were injected by the intracardiac route to develop bone-metastases in 6- to 8-week-old male C57BL/6 mice as described previously. Incidence of metastasis was monitored using Bioluminescence imaging, as described previously.
# Fig. 4. […] RM1-BM-Luc cells were injected through the intracardiac (I.C.) route into C57BL/6 mice to establish experimental bone metastases. […] A) BLI imaging was performed on day 15 and the number of bone metastasis positive mice were graphically represented as metastatic events. B) Calculated ROI values are graphically represented (n = 6 ± SEM; * p < 0.05). C) Ex vivo BLI image of representative bones from both vehicle and IVMT-Rx-4 treated animals. D) Representative ex vivo images and (E) number of animals positive for metastases in the lungs, liver, brain and spleen for each experimental group ae presented.
# MST = test: Western blot, PDGF-AA activated HS5 cells: MST; type: cell-based, human; conditions: PDGF-AA 10 ng/ML, 25 μM, 24 hrs
# [7] = tumor-bearing animals, 30 mg/kg I.P., vs DMSO
# T1 sequence (P08684 whole entry): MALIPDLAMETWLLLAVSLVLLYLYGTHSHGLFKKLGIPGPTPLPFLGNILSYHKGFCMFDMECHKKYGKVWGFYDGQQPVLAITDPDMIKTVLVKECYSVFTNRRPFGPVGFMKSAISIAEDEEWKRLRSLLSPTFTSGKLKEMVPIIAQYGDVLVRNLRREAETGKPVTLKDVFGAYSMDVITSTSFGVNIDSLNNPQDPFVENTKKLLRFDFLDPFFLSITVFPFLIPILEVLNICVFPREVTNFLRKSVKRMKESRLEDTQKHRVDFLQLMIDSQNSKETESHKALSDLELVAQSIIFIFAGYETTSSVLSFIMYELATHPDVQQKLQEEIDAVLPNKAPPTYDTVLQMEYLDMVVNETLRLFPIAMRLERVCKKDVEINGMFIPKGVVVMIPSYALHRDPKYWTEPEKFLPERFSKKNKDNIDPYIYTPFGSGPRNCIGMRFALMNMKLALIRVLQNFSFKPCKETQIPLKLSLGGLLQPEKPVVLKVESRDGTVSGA
compound,measurement,setting,value
Cc1cc(NC(=O)CCc2nnc(-c3ccccc3)o2)c(C)cc1N [IVMT-Rx-4],moisture adsorption,[1]; 80% RH,0.98%
same,moisture adsorption,[1]; 90% RH,1.06%
same,hygroscopicity,[1]; DVS,slightly hygroscopic
same,IC50,CYP3A4,~10 µM
same,"solubility in FaSSIF, FeSSIF and SIF","[2]; FaSSIF, FeSSIF and SIF",low solubility
same,solubility in organic solvents,"[2]; MeOH, EtOH, CH2Cl2, Acetone and MeCN",relatively good solubility
same,solubility in SGF,[2]; SGF,relative high solubility
same,stability in SGF and pH 1.2 buffer,"[2]; after the solubility test, both media",degradation was observed
same,solubility in hexane,[2]; hexane,almost insoluble
same,pH dependence of solubility,[2]; solubility increased with a decrease of pH,pH dependent
same,solubility in water,[2]; water,low solubility
same,cytotoxicity to tester strains in Mini-Ames assay,[3]; 1.5 to 1000 μg/well,No obvious cytotoxicity
same,Mini-Ames Assay (2-strain option: TA98 & TA100),[3],Weakly positive for 2 strains
same,"Thermodynamic solubility in PBS, pH 7.4",[4],~160 mg/ML
same,solubility thermodynamic,"[4]; pH 7.4, aqueous buffer, thermodynamic from solid",160 mg/mL
same,Caco-2 Bidirectional A-B,Caco-2 cell monolayer; apical to basolateral,21.5 ×10⁻⁶ cm/s
same,Caco-2 Bidirectional B-A,Caco-2 cell monolayer; basolateral to apical,19.9 ×10⁻⁶ cm/s
same,"Drug-substrate based CYP Inhibition, others",[5],no inhibitory effects
same,IC50,[6],> 10 µM
same,animals with bone metastases,"RM1-BM-Luc cells; 30 mg/kg I.P. 3X a week for two weeks, fourteen days post-intracardiac injection, BLI",0 out of 6
same,Ex Vivo Imaging; Positive for tumor cells (n=6) Brain,"RM1-BM-Luc cells; 30 mg/kg I.P., 6 doses",0
same,Ex Vivo Imaging; Positive for tumor cells (n=6) Liver,"RM1-BM-Luc cells; 30 mg/kg I.P., 6 doses",2
same,Ex Vivo Imaging; Positive for tumor cells (n=6) Lungs,"RM1-BM-Luc cells; 30 mg/kg I.P., 6 doses",6
same,Ex Vivo Imaging; Positive for tumor cells (n=6) Spleen,"RM1-BM-Luc cells; 30 mg/kg I.P., 6 doses",0
same,"metastasis to the liver, brain and spleen, as well as to the bones","RM1-BM-Luc cells; 30 mg/kg I.P., ex-vivo imaging",partially prevented metastasis
same,CXCL5 in the serum of mice,RM1-BM-Luc cells; [7],reduced expression
same,PDGF-AA in the serum of mice,RM1-BM-Luc cells; [7],reduced expression
same,phosphorylation of MST,MST,promoted the phosphorylation of MST
